Among the data in ChEMBL document CHEMBL1136933 (J Med Chem, 2009) are %max values, retold here.

The target in assay [1] is T1, Muscarinic acetylcholine receptor M5 (Homo sapiens) (UniProt P08912).
T1 sequence (whole entry): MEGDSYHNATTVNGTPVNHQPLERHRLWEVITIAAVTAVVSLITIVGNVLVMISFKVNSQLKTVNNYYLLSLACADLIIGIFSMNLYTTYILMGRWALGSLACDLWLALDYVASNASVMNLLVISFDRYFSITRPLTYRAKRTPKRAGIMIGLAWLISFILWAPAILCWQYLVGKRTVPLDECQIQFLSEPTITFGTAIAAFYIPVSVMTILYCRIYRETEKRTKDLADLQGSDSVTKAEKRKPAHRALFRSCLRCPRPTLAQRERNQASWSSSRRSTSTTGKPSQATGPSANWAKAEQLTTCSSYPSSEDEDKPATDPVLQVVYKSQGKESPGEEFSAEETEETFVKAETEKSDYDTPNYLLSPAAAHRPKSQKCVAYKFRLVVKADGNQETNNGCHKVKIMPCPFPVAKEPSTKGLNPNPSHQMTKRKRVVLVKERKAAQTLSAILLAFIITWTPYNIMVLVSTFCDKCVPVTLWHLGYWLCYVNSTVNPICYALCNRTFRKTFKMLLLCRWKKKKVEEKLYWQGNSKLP
As to the kind of experiment: Activation of human muscarinic M5 receptor expressed in CHO cells coexpressing Gq protein assessed as potentiation of acetylcholine-induced intracellular Ca2+ mobilization at 30 uM relative to acetylcholine. The class given is functional, cell-based. In general terms: Calcium flux is commonly read through the fluorescence of an indicator in the cells.

Assay [2] deals with T2, Muscarinic acetylcholine receptor M1 (Rattus norvegicus) (UniProt P08482).
T2 sequence (whole entry): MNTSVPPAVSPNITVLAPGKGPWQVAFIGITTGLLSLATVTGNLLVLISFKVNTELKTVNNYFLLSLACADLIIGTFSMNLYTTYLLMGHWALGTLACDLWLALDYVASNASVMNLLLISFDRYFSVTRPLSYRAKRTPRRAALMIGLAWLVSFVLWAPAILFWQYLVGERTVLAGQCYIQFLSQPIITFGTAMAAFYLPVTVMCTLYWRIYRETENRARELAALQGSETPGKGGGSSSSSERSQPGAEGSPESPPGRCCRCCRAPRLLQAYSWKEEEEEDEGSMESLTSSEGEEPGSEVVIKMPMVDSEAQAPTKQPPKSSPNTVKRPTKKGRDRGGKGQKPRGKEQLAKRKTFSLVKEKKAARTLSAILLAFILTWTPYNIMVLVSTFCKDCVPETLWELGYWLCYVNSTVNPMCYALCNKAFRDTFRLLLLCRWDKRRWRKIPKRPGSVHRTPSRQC
Put plainly: Activation of rat muscarinic M1 receptor expressed in CHO cells co-expressing Gq protein assessed as potentiation of acetylcholine-induced intracellular Ca2+ mobilization at 30 uM relative to acetylcholine. The class given is functional, cell-based.

With `O=C1C(=O)N(Cc2ccc(OC(F)(F)F)cc2)c2ccc(F)cc21`, the figures for the %max in assay [1] and in assay [2] were 58.4% and 59.8%, respectively.

For the compound `O=C1C(=O)N(Cc2ccccc2Cl)c2ccc(F)cc21`, the %max is 39.9% in assay [1] and 41.4% in assay [2].

Turning to `COc1ccc(CN2C(=O)C(=O)c3cccc(F)c32)cc1`, the %max is 44.4% in assay [1] and 54.6% in assay [2].

As to `O=C1C(=O)N(Cc2ccccc2C(F)(F)F)c2ccc(OC(F)(F)F)cc21`, the %max in assay [1] turned out to be 56.5%; in assay [2] it was 22.6%.

Take `Cc1ccc2c(c1)C(=O)C(=O)N2Cc1ccc(OC(F)(F)F)cc1`: the values for the %max in assay [1] and in assay [2] were 18.9% and 13.8%, respectively.

Consider `O=C1C(=O)N(Cc2c(F)cccc2F)c2ccc(F)cc21`, for which the %max was determined as 31.1% in assay [1] and 27.6% in assay [2].

With `O=C1C(=O)N(Cc2ccc(F)cc2F)c2ccc(F)cc21`, the %max in assay [1] is 60.3%; in assay [2], 47.3%.

Take `Cc1cccc2c1N(Cc1ccc(F)cc1F)C(=O)C2=O`: the values for the %max in assay [1] and in assay [2] were 33.8% and 32.6%, respectively.

As to `COc1cccc(CN2C(=O)C(=O)c3cc(C)ccc32)c1`, the values for the %max in assay [1] and in assay [2] were 29.6% and 14.5%, respectively.

On to `O=C1C(=O)N(Cc2ccccc2C(F)(F)F)c2c(Cl)cccc21`, for which the %max in assay [1] amounted to 14%; in assay [2], 31.1%.

Regarding `COc1cccc(CN2C(=O)C(=O)c3cccc(Cl)c32)c1`, the figures for the %max in assay [1] and in assay [2] were 38.7% and 46.9%, respectively.

Regarding `Cc1ccc2c(c1)C(=O)C(=O)N2Cc1ccc(C(F)(F)F)cc1`, the results for the %max in assay [1] and in assay [2] were 35.5% and 22.9%, respectively.

For the compound `O=C1C(=O)N(Cc2c(F)cccc2F)c2ccccc21`, the %max in assay [1] is 17.4%; in assay [2] it was 36.6%.

Take `Cc1ccccc1CN1C(=O)C(=O)c2cccc(F)c21`: the %max came out at 27.5% in assay [1] and 30.2% in assay [2].

On to `O=C1C(=O)N(Cc2ccc(Br)cc2F)c2ccc(F)cc21`, for which the %max came out at 64% in assay [1] and 70.5% in assay [2].

Regarding `O=C1C(=O)N(Cc2c(F)cccc2F)c2c(Cl)cccc21`, the %max turned out to be 23.6% in assay [1] and 38.8% in assay [2].

Regarding `O=C1C(=O)N(Cc2ccccc2F)c2ccc(Cl)cc21`, the %max came out at 36.3% in assay [1] and 23% in assay [2].

With `O=C1C(=O)N(Cc2ccc(F)cc2F)c2c(Cl)cccc21`, the %max worked out at 61.6% in assay [1] and 64.6% in assay [2].

For `O=C1C(=O)N(Cc2ccccc2F)c2c(F)cccc21`, the %max in assay [1] amounted to 42.4%; in assay [2], 42.7%.

For the compound `Cc1ccc2c(c1)C(=O)C(=O)N2Cc1ccc(Br)cc1`, the %max in assay [1] turned out to be 24.1%; in assay [2] it was 19%.

With `O=C1C(=O)N(Cc2ccccc2Cl)c2c(F)cccc21`, the values for the %max in assay [1] and in assay [2] were 20.3% and 18.5%, respectively.

For the compound `Cc1ccc2c(c1)C(=O)C(=O)N2Cc1ccc(Br)cc1F`, the %max in assay [1] amounted to 27.8%; in assay [2], 22.3%.

Take `O=C1C(=O)N(Cc2ccccc2Cl)c2ccccc21`: the %max in assay [1] was found to be 42%; in assay [2], 43.4%.

For the compound `Cc1ccc2c(c1)C(=O)C(=O)N2Cc1ccccc1C`, the %max worked out at 29.9% in assay [1] and 20.2% in assay [2].

Regarding `O=C1C(=O)N(Cc2ccc(Br)cc2F)c2ccc(Cl)cc21`, the %max in assay [1] was determined as 30.4%; in assay [2], 29.9%.

In the case of `O=C1C(=O)N(Cc2ccc(OC(F)(F)F)cc2)c2c(Cl)ccc(Cl)c21`, the %max came out at 23.2% in assay [1] and 16% in assay [2].

As for `O=C1C(=O)N(Cc2ccc(OC(F)(F)F)cc2)c2c(Cl)cccc21`, the %max came out at 72.3% in assay [1] and 43.6% in assay [2].

For the compound `O=C1C(=O)N(Cc2ccc(F)cc2F)c2c(F)cccc21`, the %max in assay [1] stood at 68.9%; in assay [2], 64.4%.

On to `COc1ccc(CN2C(=O)C(=O)c3cc(Cl)ccc32)cc1`, for which the figures for the %max in assay [1] and in assay [2] were 32.6% and 20.3%, respectively.

Regarding `O=C1C(=O)N(Cc2ccc(Br)cc2)c2ccc(OC(F)(F)F)cc21`, the %max in assay [1] came out at 47.6%; in assay [2], 13.2%.

In the case of `O=C1C(=O)N(Cc2c(F)cccc2F)c2c(Cl)ccc(Cl)c21`, the %max in assay [1] stood at 12.2%; in assay [2], 16.4%.

For `Cc1ccccc1CN1C(=O)C(=O)c2cc(F)ccc21`, the figures for the %max in assay [1] and in assay [2] were 40.8% and 37.7%, respectively.

As to `O=C1C(=O)N(Cc2ccc(F)cc2F)c2ccc(OC(F)(F)F)cc21`, the values for the %max in assay [1] and in assay [2] were 61.9% and 25.9%, respectively.

Take `O=C1C(=O)N(Cc2ccc(Br)cc2)c2c(Cl)cccc21`: the %max was 44.3% in assay [1] and 29.9% in assay [2].

As to `COc1ccc(CN2C(=O)C(=O)c3c(Cl)ccc(Cl)c32)cc1`, the %max came out at 11.7% in assay [1] and 18.6% in assay [2].

As to `O=C1C(=O)N(Cc2ccc(F)cc2F)c2ccc(Cl)cc21`, the %max in assay [1] came to 44.9%; in assay [2] it was 32.4%.

`O=C1C(=O)N(Cc2c(F)cccc2F)c2c(F)cccc21`: the %max in assay [1] amounted to 25.1%; in assay [2], 33.1%.

Turning to `Cc1ccccc1CN1C(=O)C(=O)c2cc(Cl)ccc21`, the %max in assay [1] was 47.3%; in assay [2], 27.6%.

For the compound `Cc1ccccc1CN1C(=O)C(=O)c2cccc(Cl)c21`, the %max in assay [1] stood at 32.6%; in assay [2] it was 32.8%.

On to `O=C1C(=O)N(Cc2ccccc2C(F)(F)F)c2ccccc21`, for which the %max in assay [1] worked out at 40.2%; in assay [2], 37.9%.

With `Cc1ccccc1CN1C(=O)C(=O)c2c(Cl)ccc(Cl)c21`, the %max in assay [1] was 16.4%; in assay [2] it was 13.7%.

Take `O=C1C(=O)N(Cc2ccccc2F)c2c(Cl)cccc21`: the %max came to 49.5% in assay [1] and 50.4% in assay [2].

For the compound `O=C1C(=O)N(Cc2ccc(Br)cc2)c2c(Cl)ccc(Cl)c21`, the %max in assay [1] was determined as 20.7%; in assay [2] it was 12.1%.

With `O=C1C(=O)N(Cc2ccccc2F)c2ccc(F)cc21`, the %max was found to be 46.2% in assay [1] and 40.1% in assay [2].

As for `O=C1C(=O)N(Cc2ccc(Br)cc2F)c2c(F)cccc21`, the %max in assay [1] turned out to be 46.3%; in assay [2], 39.2%.

Regarding `O=C1C(=O)N(Cc2ccccc2C(F)(F)F)c2c(Cl)ccc(Cl)c21`, the %max turned out to be 16% in assay [1] and 21.1% in assay [2].

For `O=C1C(=O)N(Cc2ccccc2F)c2ccc(OC(F)(F)F)cc21`, the %max in assay [1] amounted to 51.8%; in assay [2] it was 11.3%.

With `Cc1ccc2c(c1)C(=O)C(=O)N2Cc1ccccc1Cl`, the %max worked out at 24.3% in assay [1] and 16.8% in assay [2].

Take `O=C1C(=O)N(Cc2ccccc2Cl)c2ccc(Cl)cc21`: the results for the %max in assay [1] and in assay [2] were 44.4% and 21.3%, respectively.

Regarding `O=C1C(=O)N(Cc2ccccc2F)c2c(Cl)ccc(Cl)c21`, the %max in assay [1] came to 14.7%; in assay [2], 12.4%.

Consider `O=C1C(=O)N(Cc2ccc(OC(F)(F)F)cc2)c2c(F)cccc21`, for which the %max in assay [1] came to 57.7%; in assay [2], 51.8%.

For the compound `O=C1C(=O)N(Cc2ccccc2C(F)(F)F)c2ccc(Cl)cc21`, the %max in assay [1] is 48.4%; in assay [2], 29.6%.

For `O=C1C(=O)N(Cc2ccc(Br)cc2F)c2c(Cl)ccc(Cl)c21`, the %max in assay [1] was found to be 12.4%; in assay [2], 9.93%.

Turning to `O=C1C(=O)N(Cc2ccc(F)cc2F)c2ccccc21`, the %max is 40.4% in assay [1] and 44.8% in assay [2].

With `COc1cccc(CN2C(=O)C(=O)c3ccccc32)c1`, the %max in assay [1] stood at 28%; in assay [2] it was 19.4%.

For the compound `COc1ccc(CN2C(=O)C(=O)c3cc(C)ccc32)cc1`, the results for the %max in assay [1] and in assay [2] were 21.2% and 14.1%, respectively.

As to `O=C1C(=O)N(Cc2ccc(Br)cc2)c2ccc(Cl)cc21`, the %max was 32% in assay [1] and 26.1% in assay [2].

Regarding `Cc1cccc2c1N(Cc1c(F)cccc1F)C(=O)C2=O`, the %max in assay [1] stood at 14.4%; in assay [2], 17.3%.

Consider `O=C1C(=O)N(Cc2ccc(OC(F)(F)F)cc2)c2ccc(Cl)cc21`, for which the results for the %max in assay [1] and in assay [2] were 47.1% and 31.3%, respectively.

In the case of `O=C1C(=O)N(Cc2ccccc2F)c2ccccc21`, the %max turned out to be 24.5% in assay [1] and 38.9% in assay [2].

Regarding `O=C1C(=O)N(Cc2ccc(OC(F)(F)F)cc2)c2ccccc21`, the %max is 60.5% in assay [1] and 54.7% in assay [2].

On to `COc1cccc(CN2C(=O)C(=O)c3cc(Cl)ccc32)c1`, for which the %max worked out at 27.9% in assay [1] and 16.9% in assay [2].

In the case of `O=C1C(=O)N(Cc2ccc(F)cc2F)c2c(Cl)ccc(Cl)c21`, the figures for the %max in assay [1] and in assay [2] were 19.1% and 17.2%, respectively.

`O=C1C(=O)N(Cc2c(F)cccc2F)c2ccc(Cl)cc21`: the %max in assay [1] stood at 31.8%; in assay [2], 27.3%.
